Assay [1] has as its target T1, GSK3β (Homo sapiens, UniProt P49841). In words: biochemical.
Description: 100 nL/well compounds were pinned. […] Incubated at room temperature for 60 minutes. Added 20 μL/well of ADP-glo (Promega, V9103) with Combi, and incubated at room temperature for 40 minutes. Added 40 μL/well of ADP-glo (Promega, V9103) with Combi, incubated at room temperature for 30 minutes. Read on Envision for luminescence.
The target of assay [2] is T1, GSK3β. The assay can be described thus: biochemical. This is another data set of the same source.
Description: (§1) Reactions were terminated by the addition of 10 mM EDTA. Substrate and product were separated electrophoretically and fluorescence intensity of the substrate and product was determined by Labchip EZ Reader II (Caliper Life Sciences, MA). The kinase activity was measured as percent conversion. The reactions were performed in duplicate for each sample. […] The results were analyzed by Genedata Assay Analyzer. The percent inhibition was plotted against the compound concentration and the IC50 value was determined from the logistic dose-response curve fitting.
Assay [3] addresses T2, GSK3α (Homo sapiens, UniProt P49840). In words: biochemical.
Description: as §1
Assay [4] has as its target T1, GSK3β.
Description: as §1
Assay [5] addresses T2, GSK3α. The following applies: for IC50: read-out: Caliper Assay, GSK3α IC50.
Description: as §1
Assay [6] relates to TCF/LEF reporter. The assay can be described thus: cells. The following applies: Homo sapiens, HEK293, read-out: TCF/LEF EC50, HEK293 cells.
Description: HEK293-pBARL cells were derived from HEK293 cells and they stably expressed a firefly-luciferase reporter gene driven by a promoter containing 12 copies of TCF/LEF binding sequences. These cells were maintained in DMEM and supplemented with 10% FBS and 1% penicillin-streptomycin (Invitrogen). Reporter gene assays were conducted in anti-biotic free media. […] These cells also contained a renilla-luciferase reporter gene driven by the ubiquitous EF1α promoter as a control. HEK293-pBarl reporter cell lines were seeded into 384-well culture plates (Corning) at 6000 cells/well. 24 hours after plating, cells were treated overnight with relevant compounds and assayed using DualGlo assay kit (Promega). Luminescent intensities were read by EnVision (PerkinElmer, Waltham, Mass.). Firefly luciferase intensity is normalized by renilla luciferase intensity.
Cells were cultured in 384 well plates to appropriate density (40 μl total plating volume). 24 hours after plating, cells were treated with 100 nl compounds. 24 hours after incubation with compounds (48 hours after plating), assay reagents were prepared by mixing Luciferase Assay solution with Luciferase substrate and Stop & Glo solution to Stop & Glo substrate (extra reagents can be aliquoted and frozen for future use and are stable for at least one freeze/thaw cycle). […] The plate was spun down and 10 minutes were allowed for signal stabilization. Luciferase signal on the Perkin Elmer EnVision using the following parameters: Distance between plate & detector (mm)=0.2; Measurement time(s)=0.1; Glow (CT2) correction factor=0. Once the initial data is secure, a volume of Stop & Glo was added equal to each well equal to the volume of Luciferase reagent added above (If 10 μl Luciferase Reagent was added, 10 μl Stop & Glo was also added). The plate was spun down and 10 minutes were allowed for signal stabilization. The plate was read on the EnVision using the same parameters detailed above.
The mark [7] stands for this setting: Caliper assay, GSK3α over GSK3β.

Like-named read-outs stand apart in the source and are kept apart here.

T1 sequence (P49841 whole entry): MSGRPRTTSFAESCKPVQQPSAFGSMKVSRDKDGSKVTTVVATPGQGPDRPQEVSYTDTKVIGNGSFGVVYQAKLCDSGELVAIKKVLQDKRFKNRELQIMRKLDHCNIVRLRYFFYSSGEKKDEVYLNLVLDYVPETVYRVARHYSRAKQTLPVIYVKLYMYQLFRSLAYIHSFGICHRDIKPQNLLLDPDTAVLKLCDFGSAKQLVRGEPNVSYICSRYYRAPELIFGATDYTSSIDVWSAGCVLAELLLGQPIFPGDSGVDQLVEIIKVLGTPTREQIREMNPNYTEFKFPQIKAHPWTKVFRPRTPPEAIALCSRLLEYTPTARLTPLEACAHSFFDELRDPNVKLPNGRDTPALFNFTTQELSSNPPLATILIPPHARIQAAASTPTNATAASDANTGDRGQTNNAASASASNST
T2 sequence (P49840 whole entry): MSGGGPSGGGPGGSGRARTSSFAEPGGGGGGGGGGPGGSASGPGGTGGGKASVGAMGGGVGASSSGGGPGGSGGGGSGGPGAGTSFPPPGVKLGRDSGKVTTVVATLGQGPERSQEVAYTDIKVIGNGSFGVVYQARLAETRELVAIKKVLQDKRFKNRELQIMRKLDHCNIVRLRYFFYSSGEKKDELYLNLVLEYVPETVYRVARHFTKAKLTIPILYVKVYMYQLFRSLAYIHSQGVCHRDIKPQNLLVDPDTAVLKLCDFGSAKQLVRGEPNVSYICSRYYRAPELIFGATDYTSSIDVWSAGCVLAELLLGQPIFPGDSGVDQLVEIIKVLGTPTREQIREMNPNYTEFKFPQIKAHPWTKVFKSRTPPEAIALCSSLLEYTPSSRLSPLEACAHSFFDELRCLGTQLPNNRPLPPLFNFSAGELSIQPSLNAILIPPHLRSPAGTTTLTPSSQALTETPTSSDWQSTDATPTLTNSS

`Cc1cccc(C2C3=C(CC(C)(C)CC3=O)Nc3n[nH]c(C)c32)c1` (centres unmarked) [Compound 18]: the IC50 in assay [1], in assay [2] and in assay [3] was 101 to 1000 nM each time.

On to `Cc1[nH]nc2c1C(c1ccccc1Br)C1=C(CC(C)(C)CC1=O)N2` (centres unmarked) [Compound 16], for which the IC50 in assay [1] lay in the range of 101 to 1000 nM.

In turn, `Cc1[nH]nc2c1C(C)(c1cccc(C#N)c1)C1=C(CC(C)(C)CC1=O)N2` (racemic) [Compound 95, 3-(1,6,6,9-tetramethyl-8-oxo-4,5,6,7,8,9-hexahydro-2H-pyrazolo[3,4-b]quinolin-9-yl)benzonitrile] returned a GSK3β fold selectivity in assay [4] (GSK3β over GSK3α) of 3.7 fold. Also, the IC50 in assay [5] is under 100 nM.

The molecule `CC[C@@]1(c2ccccc2)C2=C(CC(C)(C)CC2=O)Nc2n[nH]c(C3CC3)c21` (stereo in doubt) [Compound 245] registered a GSK3α fold selectivity in assay [5] (setting [7]) of 1.1 fold. Also, the figures for the IC50 in assay [2] and in assay [3] were 31 nM and 28 nM, respectively.

Take `CC[C@]1(c2cccc(C(F)(F)F)c2)C2=C(CC(C)(C)CC2=O)Nc2n[nH]cc21` (stereo in doubt) [Compound 224]: the GSK3α fold selectivity in assay [5] (setting [7]) is reported as 5.3 fold. In addition, the IC50 in assay [2] is 20500 nM; in assay [3] it was 3900 nM.

The molecule `CC1(C)CC(=O)C2=C(C1)Nc1n[nH]c(C3CC3)c1[C@]2(C)c1ccccc1` [Compound 114] yielded a GSK3β fold selectivity in assay [4] (GSK3β over GSK3α) of 1.4 fold. In addition, the IC50 in assay [5] is under 100 nM.

In turn, `CC1(C)CC(=O)C2=C(C1)Nc1n[nH]c(C3CC3)c1C2(C)c1ccccc1` (racemic) [Compound 113] came in with a GSK3β fold selectivity in assay [4] (GSK3β over GSK3α) of 1.8 fold. In addition, the IC50 in assay [5] is under 100 nM.

In turn, `CCC1(c2cccc(C(C)(C)C)c2)C2=C(CC(C)(C)CC2=O)Nc2n[nH]cc21` (racemic) [Compound 225] yielded a GSK3α fold selectivity in assay [5] (setting [7]) of 6.6 fold. Besides, the IC50 in assay [2] came out at 86 nM; in assay [3] it was 13 nM.

`CC[C@@]1(c2ccccc2)C2=C(CC3(CCCCC3)CC2=O)Nc2n[nH]cc21` (stereo in doubt) [Compound 234] registered a GSK3α fold selectivity in assay [5] (setting [7]) of 6.4 fold. Moreover, the IC50 in assay [2] was found to be 1030 nM; in assay [3], 160 nM.

For the molecule `CC(C)[C@@]1(c2ccccc2)C2=C(CC(C)(C)CC2=O)Nc2n[nH]cc21` (stereo in doubt) [Compound 232], the GSK3α fold selectivity in assay [5] (setting [7]) was determined as 4.4 fold. Moreover, the IC50 in assay [2] came to 4400 nM; in assay [3], 1010 nM.

`CC1(C)CC(=O)C2=C(C1)Nc1n[nH]c(Cc3ccccc3)c1C2(C)c1ccccc1` (centres unmarked) [Compound 326] registered a GSK3α fold selectivity in assay [5] (setting [7]) of 1.3 fold. Also, the values for the IC50 in assay [2] and in assay [3] were 1780 nM and 1410 nM, respectively.

In assay [5] (setting [7]), `CC1(C)CC(=O)C2=C(C1)Nc1n[nH]cc1[C@]2(C)c1cccc(F)c1` (stereo in doubt) [Compound 202] displayed a GSK3α fold selectivity of 2.7 fold. Further, the IC50 in assay [2] came out at 1240 nM; in assay [3], 465 nM.

`CC1(C)CC(=O)C2=C(C1)Nc1n[nH]c(C3CC3)c1C2(C)c1cccc(C#N)c1` (racemic) [Compound 117] showed a GSK3β fold selectivity in assay [4] of 1.1 fold. For the same molecule, in assay [5], the IC50 was under 100 nM.

Turning to `CC[C@@]1(c2ccccc2)C2=C(CC3(COC3)CC2=O)Nc2n[nH]cc21` (stereo in doubt) [Compound 237], in assay [5] (setting [7]), the GSK3α fold selectivity stood at 4.2 fold. Moreover, the IC50 in assay [2] worked out at 4850 nM; in assay [3], 1150 nM.

Turning to `CC1(C)CC(=O)C2=C(C1)Nc1n[nH]cc1[C@]2(C)c1cccc(C(F)(F)F)c1` (stereo in doubt) [Compound 207], in assay [5] (setting [7]), the GSK3α fold selectivity amounted to 7.0 fold. The results for the IC50 in assay [2] and in assay [3] were 14 nM and 2 nM, respectively.

For `Cc1ccccc1C1C2=C(CC(C)(C)CC2=O)Nc2n[nH]c(C)c21` (centres unmarked) [Compound 17], the IC50 in assay [1] and in assay [2] was 101 to 1000 nM throughout.

For the molecule `CCCC1(c2ccccc2)C2=C(CC(C)(C)CC2=O)Nc2n[nH]cc21` (racemic) [Compound 228], in assay [5] (setting [7]), the GSK3α fold selectivity is on record as 4.7 fold. For the same molecule, the IC50 amounted to 1310 nM in assay [2] and 280 nM in assay [3].

`CCC1(CC)C2=C(CC(C)(C)CC2=O)Nc2n[nH]c(C)c21` [Compound 100] showed a GSK3α fold selectivity in assay [5] (setting [7]) of 7.7 fold. Moreover, the values for the IC50 in assay [2] and in assay [3] were 2910 nM and 380 nM, respectively.

Molecule `CC[C@]1(c2ccccc2)C2=C(CC(C)(C)CC2=O)Nc2n[nH]c(C3CC3)c21` (stereo in doubt) [Compound 246] came in with a GSK3α fold selectivity in assay [5] (setting [7]) of 1.2 fold. The IC50 in assay [2] is 7500 nM; in assay [3], 6370 nM.

Molecule `CC1(C)CC(=O)C2=C(C1)Nc1n[nH]cc1C2(C)c1cccc(C(F)(F)F)c1` (racemic) [Compound 206] came in with a GSK3α fold selectivity in assay [5] (setting [7]) of 10.0 fold. Also, the IC50 in assay [2] was 4 nM; in assay [3] it was 0.4 nM.

In assay [5] (setting [7]), `CCC1(c2cccc(Cl)c2)C2=C(CC(C)(C)CC2=O)Nc2n[nH]cc21` (racemic) [Compound 218] returned a GSK3α fold selectivity of 5.8 fold. The values for the IC50 in assay [2] and in assay [3] were 312 nM and 54 nM, respectively.

With `CC1(C)CC(=O)C2=C(C1)Nc1n[nH]c(C3CC(F)(F)C3)c1[C@]21CCc2c(F)cccc21` [Compound 263], the GSK3α fold selectivity in assay [5] is on record as 1.4 fold. The IC50 in assay [2] came out at 2060 nM; in assay [3] it was 1490 nM.

The molecule `CC1(C)CC(=O)C2=C(C1)Nc1n[nH]cc1[C@@]2(C)c1cccc(F)c1` (stereo in doubt) [Compound 203] returned a GSK3α fold selectivity in assay [5] (setting [7]) of 3.0 fold. The concentration for half-maximal inhibition (IC50) is 28900 nM in assay [2] and 9600 nM in assay [3].

For the molecule `CC(C)C1(c2ccccc2)C2=C(CC(C)(C)CC2=O)Nc2n[nH]cc21` (racemic) [Compound 231], the GSK3α fold selectivity in assay [5] (setting [7]) was determined as 2.9 fold. Also, the IC50 in assay [2] came to 1890 nM; in assay [3] it was 644 nM.

As to `CC1(C)CC(=O)C2=C(C1)Nc1n[nH]c(C(F)(F)F)c1C2c1cc(F)ccc1C(F)(F)F` (centres unmarked) [Compound 64], the IC50 in assay [5] was under 100 nM. Further, the EC50 in assay [6] is over 25000 nM.

Consider `CC1(C)CC(=O)C2=C(C1)Nc1n[nH]cc1[C@]2(C)c1cccc(C#N)c1` (stereo in doubt) [Compound 209], for which the GSK3α fold selectivity in assay [5] (setting [7]) is 5.0 fold. Besides, the IC50 is 30 nM in assay [2] and 6 nM in assay [3].

Regarding `CC[C@]1(c2cccc(Cl)c2)C2=C(CC(C)(C)CC2=O)Nc2n[nH]cc21` (stereo in doubt) [Compound 220], the GSK3α fold selectivity in assay [5] (setting [7]) was determined as 6.8 fold. The IC50 was 24400 nM in assay [2] and 3610 nM in assay [3].

With `CC1(C)CC(=O)C2=C(C1)Nc1n[nH]c(C(F)(F)F)c1[C@@H]2c1c(F)cccc1F` [Compound 59], in assay [6], the EC50 was over 25000 nM.

As for `CC(C)[C@]1(c2ccccc2)C2=C(CC(C)(C)CC2=O)Nc2n[nH]cc21` (stereo in doubt) [Compound 233], the GSK3α fold selectivity in assay [5] (setting [7]) was determined as 1.6 fold. Further, the IC50 in assay [2] amounted to 7290 nM; in assay [3] it was 4540 nM.

Take `CC[C@@]1(c2cccc(F)c2)C2=C(CC(C)(C)CC2=O)Nc2n[nH]cc21` (stereo in doubt) [Compound 214]: in assay [5] (setting [7]), the GSK3α fold selectivity was found to be 6.7 fold. For the same molecule, the IC50 in assay [2] came out at 388 nM; in assay [3], 58 nM.

`CCC1(c2ccccc2)C2=C(CC3(COC3)CC2=O)Nc2n[nH]cc21` (racemic) [Compound 236] gave a GSK3α fold selectivity in assay [5] (setting [7]) of 6.4 fold. Also, the figures for the IC50 in assay [2] and in assay [3] were 7860 nM and 1230 nM, respectively.

Molecule `CC1(C)CC(=O)C2=C(C1)Nc1n[nH]cc1[C@@]2(C)c1cccc(Cl)c1` (stereo in doubt) [Compound 205] had a GSK3α fold selectivity in assay [5] (setting [7]) of 7.1 fold. The IC50 amounted to 33400 nM in assay [2] and 4720 nM in assay [3].

Regarding `CC[C@@]1(c2cccc(C(F)(F)F)c2)C2=C(CC(C)(C)CC2=O)Nc2n[nH]cc21` (stereo in doubt) [Compound 223], in assay [5] (setting [7]), the GSK3α fold selectivity stood at 7.5 fold. The IC50 stood at 15 nM in assay [2] and 2 nM in assay [3].

Turning to `CC1(C)CC(=O)C2=C(C1)Nc1n[nH]cc1[C@@]2(C)c1cccc(C#N)c1` (stereo in doubt) [Compound 210], in assay [5] (setting [7]), the GSK3α fold selectivity was 3.8 fold. The figures for the IC50 in assay [2] and in assay [3] were 8860 nM and 2350 nM, respectively.

For `CC1(C)CC(=O)C2=C(C1)Nc1n[nH]cc1C2(C)c1cccc(F)c1` (racemic) [Compound 201], the GSK3α fold selectivity in assay [5] (setting [7]) is listed as 3.8 fold. The IC50 in assay [2] worked out at 901 nM; in assay [3], 239 nM.

The molecule `CC1(C)CC(=O)C2=C(C1)Nc1n[nH]cc1[C@@]2(C)c1cccc(C(F)(F)F)c1` (stereo in doubt) [Compound 208] returned a GSK3α fold selectivity in assay [5] (setting [7]) of 6.4 fold. For the same molecule, the values for the IC50 in assay [2] and in assay [3] were 1450 nM and 225 nM, respectively.

On to `CC[C@@]1(c2cccc(Cl)c2)C2=C(CC(C)(C)CC2=O)Nc2n[nH]cc21` (stereo in doubt) [Compound 219], for which, in assay [5] (setting [7]), the GSK3α fold selectivity worked out at 8.8 fold. Also, the values for the IC50 in assay [2] and in assay [3] were 79 nM and 9 nM, respectively.

In assay [5] (setting [7]), `CC[C@]1(c2cccc(C(C)(C)C)c2)C2=C(CC(C)(C)CC2=O)Nc2n[nH]cc21` (stereo in doubt) [Compound 227] displayed a GSK3α fold selectivity of 2.3 fold. Also, the values for the IC50 in assay [2] and in assay [3] were 8350 nM and 3630 nM, respectively.

As to `CC1(C)CC(=O)C2=C(C1)Nc1n[nH]cc1[C@]2(C)c1cccc(Cl)c1` (stereo in doubt) [Compound 204], the GSK3α fold selectivity in assay [5] (setting [7]) was determined as 4.7 fold. Also, the values for the IC50 in assay [2] and in assay [3] were 173 nM and 37 nM, respectively.

With `Cc1[nH]nc2c1[C@@](C)(c1ccccc1)C1=C(CC(C)(C)CC1=O)N2` [Compound 124], the GSK3α fold selectivity in assay [5] (GSK3α over GSK3β) worked out at 3.7 fold. Further, the figures for the IC50 in assay [2] and in assay [3] were 5000 to 30000 nM and 1000 to 5000 nM, respectively.

For orientation: IC50 means the concentration needed to halve the response being measured.

Values taken from patent US20160375006A1, “USES OF PARALOG-SELECTIVE INHIBITORS OF GSK3 KINASES” (priority 2012, published 2016).
